This is an account of results in patent US20140073628A1, “BENZOXAZEPINES ASN INHIBITORS OF P13K/M TOR AND METHODS OF THEIR USE AND MANUFACTURE” (priority 2010, published 2014).

For orientation: IC50 means the concentration that gives 50% inhibition. Read a low IC50 as higher potency.

A value given as a limit tells only on which side of the number the result lay.

This assay concerns the target mTOR/GbL/Raptor (mTORC1) (Homo sapiens, UniProt P42345). As to the kind of experiment: mTOR/GbL/Raptor (mTORC1) ELISA assay. Format: biochemical. Particulars: phosphorylation of 4E-BP1; 0.2 nM mTORC1, 10 μM ATP, 50 nM NHis-tagged 4E-BP1. As to the method: mTOR/GbL/Raptor (mTORC1) ELISA Assay
The measurement of mTORC1 enzyme activity was performed in an ELISA assay format following the phosphorylation of 4E-BP1 protein. All experiments were performed in the 384-well format. Generally, 0.5 μL DMSO containing varying concentrations of the test compound was mixed with 15 μL enzyme solution. Kinase reactions were initiated with the addition of 15 μL of substrates-containing solution. The assay conditions were as follows; 0.2 nM mTORC1, 10 μM ATP and 50 nM NHis-tagged 4E-BP1 in 20 mM Hepes, pH 7.2, 1 mM DTT, 50 mM NaCl, 10 mM MnCl2, 0.02 mg/mL BSA, 0.01% CHAPS, 50 mM β-glycerophosphate. Following an incubation of 120 minutes at ambient temperature, 20 μL of the reaction volume was transferred to a Ni-Chelate-coated 384-well plate. The binding step of the 4E-BP1 protein proceeded for 60 minutes, followed by washing 4 times each with 50 μL of Tris-buffered saline solution (TBS). Anti-phospho-4E-BP1 rabbit-IgG (20 μL, 1:5000) in 5% BSA-TBST (0.2% Tween-20 in TBS) was added and further incubated for 60 minutes. Incubation with a secondary HRP-tagged anti-IgG was similarly performed after washing off the primary antibody (4 washes of 50 μL). Following the final wash step with TBST, 20 μL of SuperSignal ELISA Femto (Pierce Biotechnology) was added and the luminescence measured using an EnVision plate reader.
A general note: In an ELISA, binding on a coated surface is turned into a signal by an enzyme label.

In the case of `Cc1nc2cc(-c3ccc4c(c3)CN(c3nc(N)nc(C)c3C(C)C)CCO4)cnc2[nH]1` [Compound 50, 4-methyl-5-(1-methylethyl)-6-[7-(2-methyl-3H-imidazo[4,5-b]pyridin-6-yl)-2,3-dihydro-1,4-benzoxazepin-4(5H)-yl]pyrimidin-2-amine], the IC50 was at most 100 nM.

Consider `Cc1nc(N)nc(N2CCOc3ccc(-c4ccc5[nH]cnc5c4)cc3C2)c1Cc1ccc(F)cc1` [Compound 36, 4-[7-(1H-benzimidazol-5-yl)-2,3-dihydro-1,4-benzoxazepin-4(5H)-yl]-5-[(4-fluorophenyl)methyl]-6-methylpyrimidin-2-amine], for which the IC50 was at most 100 nM.

As to `Cc1nc2cc(-c3ccc4c(c3)CN(c3nc(CN(C)C)nc(C)c3Cl)CCO4)ccc2[nH]1` [Compound 31, 1-{5-chloro-4-methyl-6-[7-(2-methyl-1H-benzimidazol-5-yl)-2,3-dihydro-1,4-benzoxazepin-4(5H)-yl]pyrimidin-2-yl}-N,N-dimethylmethanamine], the half-inhibitory concentration (IC50) fell in the range of 500 to 2500 nM.

For `Cc1nc(N)nc(N2CCOc3ccc(-c4cnc5[nH]cnc5c4)cc3C2)c1C(C)C` [Compound 52, 4-[7-(3H-imidazo[4,5-b]pyridin-6-yl)-2,3-dihydro-1,4-benzoxazepin-4(5H)-yl]-6-methyl-5-(1-methylethyl)pyrimidine-2-amine], the IC50 was at most 100 nM.

Take `COC(=O)Nc1nc2cc(-c3ccc4c(c3)CN(c3nc(N)nc(C)c3C(C)C)CCO4)ccc2[nH]1` [Compound 17, methyl (5-{4-[2-amino-6-methyl-5-(1-methylethyl)pyrimidin-4-yl]-2,3,4,5-tetrahydro-1,4-benzoxazepin-7-yl}-1H-benzimidazol-2-yl)carbamate]: the IC50 is at most 100 nM.

Take `CCNc1nc(C)c(Cc2ccc(F)cc2)c(N2CCOc3ccc(-c4ccc5[nH]c(C)nc5c4)cc3C2)n1` [Compound 12, N-ethyl-5-[(4-fluorophenyl)methyl]-4-methyl-6-[7-(2-methyl-1H-benzimidazol-5-yl)-2,3-dihydro-1,4-benzoxazepin-4(5H)-yl]pyrimidin-2-amine]: the IC50 was at most 100 nM.

In the case of `CCN(CC)Cc1nc(C)c(C(C)C)c(N2CCOc3ccc(-c4ccc5nc(C)[nH]c5c4)cc3C2)n1` [Compound 3, N-ethyl-N-({4-methyl-6-[7-(2-methyl-1H-benzimidazol-5-yl)-2,3-dihydro-1,4-benzoxazepin-4(5H)-yl]-5-(1-methylethyl)pyrimidin-2-yl}methyl)ethanamine], the concentration for half-maximal inhibition (IC50) lay in the range of 100 to 500 nM.

`C=CCc1c(C)nc(N)nc1N1CCOc2ccc(-c3ccc4nc(C)[nH]c4c3)cc2C1` [Compound 35, 4-methyl-6-[7-(2-methyl-1H-benzimidazol-5-yl)-2,3-dihydro-1,4-benzoxazepin-4(5H)-yl]-5-prop-2-en-1-ylpyrimidin-2-amine] yielded an IC50 of at most 100 nM.

For the molecule `COc1ccc(-c2ccc3c(c2)CN(c2nc(N)nc(C)c2C(C)C)CCO3)cc1NS(C)(=O)=O` [Compound 16, N-[5-{4-[2-amino-6-methyl-5-(1-methylethyl)pyrimidin-4-yl]-2,3,4,5-tetrahydro-1,4-benzoxazepin-7-yl}-2-(methyloxy)phenyl]methanesulfonamide], the half-maximal inhibitory concentration (IC50) is at most 100 nM.

Molecule `CC(=O)OCc1nc(C)c(C(C)C)c(N2CCOc3ccc(-c4ccc5nc(C)[nH]c5c4)cc3C2)n1` [Compound 4, {4-methyl-6-[7-(2-methyl-1H-benzimidazol-5-yl)-2,3-dihydro-1,4-benzoxazepin-4(5H)-yl]-5-(1-methylethyl)pyrimidin-2-yl}methyl acetate] gave an IC50 of at most 100 nM.

`CC(=O)NCc1nc2c(c(N3CCOc4ccc(-c5ccc6[nH]c(C)nc6c5)cc4C3)n1)CC(C)(C)CC2` [Compound 26, N-({6,6-dimethyl-4-[7-(2-methyl-1H-benzimidazol-5-yl)-2,3-dihydro-1,4-benzoxazepin-4(5H)-yl]-5,6,7,8-tetrahydroquinazolin-2-yl}methyl)acetamide] gave a half-maximal inhibitory concentration (IC50) of at most 100 nM.

On to `COCCc1c(C)nc(CN(C)C)nc1N1CCOc2ccc(-c3ccc4nc(C)[nH]c4c3)cc2C1` [Compound 1, N,N-dimethyl-1-{4-methyl-6-[7-(2-methyl-1H-benzimidazol-6-yl)-2,3-dihydro-1,4-benzoxazepin-4(5H)-yl]-5-[2-(methyloxy)ethyl]pyrimidin-2-yl}methanamine], for which the 50% inhibitory concentration (IC50) was in the range of 500 to 2500 nM.

For the molecule `Cc1nc(N)nc(N2CCOc3ccc(-c4cnc5[nH]cnc5c4)cc3C2)c1Cc1ccc(F)cc1` [Compound 47, 5-[(4-fluorophenyl)methyl]-4-[7-(3H-imidazo[4,5-b]pyridin-6-yl)-2,3-dihydro-1,4-benzoxazepin-4(5H)-yl]-6-methylpyrimidin-2-amine], the half-maximal inhibitory concentration (IC50) is at most 100 nM.

On to `COc1ccc2c(N3CCOc4ccc(-c5ccc6[nH]cnc6c5)cc4C3)nc(CN(C)C)nc2c1` [Compound 37, 1-{4-[7-(1H-benzimidazol-5-yl)-2,3-dihydro-1,4-benzoxazepin-4(5H)-yl]-7-(methyloxy)quinazolin-2-yl}-N,N-dimethylmethanamine], for which the half-inhibitory concentration (IC50) was in the range of 500 to 2500 nM.

As to `Cc1nc2ccc(-c3cc(F)c4c(c3)CN(c3nc(N)nc(C)c3C(C)C)CCO4)cc2[nH]1` [Compound 51, 4-[9-fluoro-7-(2-methyl-1H-benzimidazol-6-yl)-2,3-dihydro-1,4-benzoxazepin-4(5H)-yl]-6-methyl-5-(1-methylethyl)pyrimidin-2-amine], the half-inhibitory concentration (IC50) is at most 100 nM.

Molecule `COc1ccc(-c2ccc3c(c2)CN(c2nc(CN(C)C)nc4c2CC(C)(C)CC4)CCO3)cc1S(C)(=O)=O` [Compound 9, 1-(6,6-dimethyl-4-{7-[4-(methyloxy)-3-(methylsulfonyl)phenyl]-2,3-dihydro-1,4-benzoxazepin-4(5H)-yl}-5,6,7,8-tetrahydroquinazolin-2-yl)-N,N-dimethylmethanamine] returned an IC50 of 500 to 2500 nM.

`Cc1nc(N)nc(N2CCOc3ccc(-c4cnc5[nH]c(N)nc5c4)cc3C2)c1C(C)C` [Compound 46, 6-{4-[2-amino-6-methyl-5-(1-methylethyl)pyrimidin-4-yl]-2,3,4,5-tetrahydro-1,4-benzoxazepin-7-yl}-3H-imidazo[4,5-b]pyridin-2-amine] gave an IC50 of at most 100 nM.

The molecule `Cc1nc2cc(-c3ccc4c(c3)CN(c3nc(CN(C)C)nc(C)c3Br)CCO4)ccc2[nH]1` [Compound 30, 1-{5-bromo-4-methyl-6-[7-(2-methyl-1H-benzimidazol-5-yl)-2,3-dihydro-1,4-benzoxazepin-4(5H)-yl]pyrimidin-2-yl}-N,N-dimethylmethanamine] came in with an IC50 of 500 to 2500 nM.

`Cc1nc2cc(-c3ccc4c(c3)CN(c3nc(N)nc(C)c3Cc3ccc(F)cc3)CCO4)ccc2[nH]1` [Compound 39, 5-[(4-fluorophenyl)methyl]-4-methyl-6-[7-(2-methyl-1H-benzimidazol-5-yl)-2,3-dihydro-1,4-benzoxazepin-4(5H)-yl]pyrimidin-2-amine]: the IC50 was at most 100 nM.

As for `COc1ccc(-c2ccc3c(c2)CN(c2nc(CN(C)C)nc4c2CC(C)(C)CC4)CCO3)cc1OC(F)F` [Compound 8, 1-{4-[7-{3-[(difluoromethyl)oxy]-4-(methyloxy)phenyl}-2,3-dihydro-1,4-benzoxazepin-4(5H)-yl]-6,6-dimethyl-5,6,7,8-tetrahydroquinazolin-2-yl}-N,N-dimethylmethanamine], the IC50 lay in the range of 100 to 500 nM.

`Cc1nc2cc(-c3ccc4c(c3)CN(c3nc(CN(C)C)nc(C)c3-c3ccccc3)CCO4)ccc2[nH]1` [Compound 21, N,N-dimethyl-1-{4-methyl-6-[7-(2-methyl-1H-benzimidazol-5-yl)-2,3-dihydro-1,4-benzoxazepin-4(5H)-yl]-5-phenylpyrimidin-2-yl}methanamine]: the IC50 was in the range of 100 to 500 nM.

In turn, `Cc1nc2cc(-c3ccc4c(c3)CN(c3nc(CN5CCCC5)nc(C)c3C(C)C)CCO4)ccc2[nH]1` [Compound 20, 7-(2-methyl-1H-benzimidazol-5-yl)-4-[6-methyl-5-(1-methylethyl)-2-(pyrrolidin-1-ylmethyl)pyrimidin-4-yl]-2,3,4,5-tetrahydro-1,4-benzoxazepine] returned an IC50 of 100 to 500 nM.

Regarding `Cc1nc2cc(-c3ccc4c(c3)CN(c3nc(N)nc(C)c3Cc3ccc(F)cc3)CCO4)cnc2[nH]1` [Compound 48, 5-[(4-fluorophenyl)methyl]-4-methyl-6-[7-(2-methyl-3H-imidazo[4,5-b]pyridin-6-yl)-2,3-dihydro-1,4-benzoxazepin-4(5H)-yl]pyrimidin-2-amine], the IC50 was at most 100 nM.

`Cc1nc2cc(-c3ccc4c(c3)CN(c3nc(N)nc5c3CC(C)(C)CC5)CCO4)ccc2[nH]1` [Compound 29, 6,6-dimethyl-4-[7-(2-methyl-1H-benzimidazol-5-yl)-2,3-dihydro-1,4-benzoxazepin-4(5H)-yl]-5,6,7,8-tetrahydroquinazolin-2-amine] gave an IC50 of at most 100 nM.
